From ChEMBL document CHEMBL4184243, “Optimization of antimalarial, and anticancer activities of (E)-methyl 2-(7-chloroquinolin-4-ylthio)-3-(4-hydroxyphenyl) acrylate” (Bioorg Med Chem, 2018)

Legend:
[1] = Inhibition of beta-hematin formation assessed as reduction in acetate buffer-initiated hemozoin formation measured after 48 hrs; set-up: concentration or dose not given beside the values; conditions: concentration not given here
[2] = Selectivity index, ratio of IC50 for human lymphocytes to IC50 for human HL60 cells; format: toxicity; conditions: human lymphocytes versus HL60 cells, read-out: Ratio IC50
HL-60 [3] = assay: Induction of apoptosis in human HL60 cells assessed as early apoptotic cells at 5 uM after 24 hrs by Annexin-V-FITC/propidium iodide staining based flow cytometric analysis (reference value: 0.36 +/- 0.02 %); format: functional
Mus musculus [4] = assay: Toxicity in Balb-C mouse infected with chloroquine-susceptible Plasmodium berghei ANKA assessed as effect on body weight at 20 mg/kg, ip administered once daily for 4 days measured at 30 days post infection; format: organism-based; conditions: in vivo, 720 h
[5] = Safety index, ratio of test compound IC50 to doxorubicin IC50 for human lymphocytes; format: ADME, cell-based, Lymphocyte; conditions: read-out: Ratio IC50
HL-60 [6] = assay: Induction of apoptosis in human HL60 cells assessed as necrotic cells at 5 uM after 24 hrs by Annexin-V-FITC/propidium iodide staining based flow cytometric analysis (reference value: 1.96 +/- 0.33 %); format: functional
[7] = Selectivity index, ratio of IC50 for human lymphocytes to IC50 for human Jurkat E6-1 cells; format: toxicity; conditions: human lymphocytes versus Jurkat E6-1 cells, read-out: Ratio IC50
Jurkat E6.1 [8] = assay: Induction of apoptosis in human Jurkat E6-1 cells assessed as necrotic cells at 5 uM after 24 hrs by Annexin-V-FITC/propidium iodide staining based flow cytometric analysis (reference value: 1.26 +/- 0.24 %); format: functional
Lymphocyte = assay: Cytotoxicity against human lymphocytes after 24 to 48 hrs by MTT assay; format: cell-based
Plasmodium berghei [9] = assay: Antimalarial activity against chloroquine-susceptible Plasmodium berghei ANKA infected in Balb-C mouse assessed as mean survival days at 10 mg/kg, ip administered once daily for 4 days (reference value: 8.4 +/- 0.15 day); format: functional
Plasmodium berghei [10] = assay: Antimalarial activity against chloroquine-susceptible Plasmodium berghei ANKA infected in Balb-C mouse assessed as parasitemia at 10 mg/kg, ip administered once daily for 4 days measured post last dose by Giemsa staining based method (reference value: 65.8 +/- 4.38%); format: functional
Jurkat E6.1 [11] = assay: Induction of apoptosis in human Jurkat E6-1 cells assessed as early apoptotic cells at 5 uM after 24 hrs by Annexin-V-FITC/propidium iodide staining based flow cytometric analysis (reference value: 0.5 +/- 0.07 %); format: functional
Jurkat E6.1 [12] = assay: Induction of apoptosis in human Jurkat E6-1 cells assessed as late apoptotic cells at 5 uM after 24 hrs by Annexin-V-FITC/propidium iodide staining based flow cytometric analysis (reference value: 0.73 +/- 0.14 %); format: functional
HL-60 [13] = assay: Cytotoxicity against human HL60 cells after 24 hrs by MTT assay; format: functional, cell-based; conditions: HL-60, 24 h
Mus musculus [14] = assay: Toxicity in Balb-C mouse infected with chloroquine-susceptible Plasmodium berghei ANKA assessed as survival at 20 mg/kg, ip administered once daily for 4 days measured at 30 days post infection; format: organism-based; conditions: in vivo, 720 h
HL-60 [15] = assay: Induction of apoptosis in human HL60 cells assessed as late apoptotic cells at 5 uM after 24 hrs by Annexin-V-FITC/propidium iodide staining based flow cytometric analysis (reference value: 0.85 +/- 0.13 %); format: functional
Jurkat E6.1 [16] = assay: Cytotoxicity against human Jurkat E6-1 cells after 24 hrs by MTT assay; format: functional, cell-based; conditions: Jurkat E6.1, 24 h

## COC(=O)/C(=C\c1ccc(OC(=O)c2ccc(OC)c(OC)c2OC)cc1)Sc1ccnc2cc(Cl)ccc12
[1]
  inhibition: 85.1%
[2]
  selectivity ratio: 10.8
HL-60 [3]
  Activity: 0.75%
Mus musculus [4]
  Activity: Non-Toxic
[5]
  selectivity ratio: 5.1
HL-60 [6]
  Activity: 62.1%
[7]
  selectivity ratio: 9.27
Jurkat E6.1 [8]
  Activity: 55.6%
Lymphocyte
  IC50: 22.4 µM
Plasmodium berghei [9]
  MSD: 29.83 days
Plasmodium berghei [10]
  Activity: 1%
Jurkat E6.1 [11]
  Activity: 0.58%
Jurkat E6.1 [12]
  Activity: 4.12%
HL-60 [13]
  IC50: 2080 nM
Mus musculus [14]
  Activity: Non-Toxic
HL-60 [15]
  Activity: 7.38%
Jurkat E6.1 [16]
  IC50: 2410 nM
